Assay results from US20170136010A1, “ORAL SOLID PREPARATION COMPRISING ARIPIPRAZOLE AND METHOD FOR PRODUCING ORAL SOLID PREPARATION COMPRISING ARIPIPRAZOLE” (OTSUKA PHARMACEUTICAL CO., LTD, priority 2013, published 2017).

Legend:
Format in all cases: physicochemical
[1] = Hygroscopic test of aripiprazole anhydrous crystal, water content by Karl Fischer coulometric titration; details: for Water content level (wt %) after humidification: after 24 hours at 60° C. in desiccator including water; for Water content level (wt %) before humidification: before hygroscopic test
Procedure: About 1 g of aripiprazole obtained in the Synthesis Example was weighed in each of the weighing bottles having a diameter of about 5 cm. Each of the bottles was sealed with Kimwipe, and allowed to stand in a desiccator including water. The desiccator was placed in an oven at 60° C., and allowed to stand for 24 hours.
The weighing bottles were removed from the desiccator, and allowed to stand for 16 hours or more in a desiccator (room temperature/about 30% RH) including an MgCl2/6H2O saturated salt solution, thereby removing attached excess water. The water contents of the samples before and after the hygroscopic test were measured according to the following test procedure.
0.1 g of the aripiprazole obtained in the Synthesis Example and 0.1 g of the aripiprazole obtained after the hygroscopic test were accurately weighed. Using a moisture meter (CA-200) produced by Mitsubishi Chemical Analytech Co., Ltd., a test was performed according to the coulometric titration method, which is a water content measurement method (Karl Fischer method).

[2] = Hygroscopic test of finely milled powder, water content by Karl Fischer method; details: for Water content level (wt %), hygroscopic test of finely milled aripiprazole crystal, 24 hours: 60° C., humidity 100%
Procedure: The finely milled powder obtained above was evaluated by a hygroscopic test according to the following method.
About 1 g of milled powder was weighed in a weighing bottle with a diameter of 5 cm, allowed to stand in water/desiccator in which the temperature and humidity were respectively set to 60° C. and 100%, and then allowed to stand in MgCl2.6H2O saturated salt solution/desiccator having a room temperature and humidity of about 30% for 24 hours, Thereafter, the water content was measured. The water content was measured according to the Karl Fischer method by accurately measuring 0.1 g of a sample.

[3] = Mean particle size by laser diffraction scattering particle size distribution analyzer; details: volume mean diameter, dry
Procedure: The term “mean particle size” refers to volume mean diameter as calculated from the particle size distribution measured by a laser scattering particle size distribution analyzer analyzer.
The particle size of the resulting finely milled powder of highly hygroscopic aripiprazole anhydrous crystal was measured using Dry Unit 2000, which was a laser diffraction scattering particle size distribution analyzer (Laser Micron Sizer (LMS-2000e)), and the mean particle size was calculated from the obtained measurement results. […] The measurement conditions using a laser diffraction scattering particle size distribution analyzer were as follows: Particle refractive index: 1.750, imaginary part: 0.1, and dispersive pressure: 0.15 MPa.

Compound	Water content level (wt %) after humidification [1]	Water content level (wt %) before humidification [1]	Water content level (wt %), hygroscopic test of finely milled aripiprazole crystal, 0 hour [2]	Water content level (wt %), hygroscopic test of finely milled aripiprazole crystal, 24 hours [2]	Mean particle size [3]
O=C1CCc2ccc(OCCCCN3CCN(c4cccc(Cl)c4Cl)CC3)cc2N1 [Lot No. 1, 7-{4-[4-(2,3-dichlorophenyl)-1-piperazinyl]butoxy}-3,4-dihydrocarbostyril]	0.809 wt %	0.003 wt %	–	–	–
O=C1CCc2ccc(OCCCCN3CCN(c4cccc(Cl)c4Cl)CC3)cc2N1 [Lot No. 2, 7-{4-[4-(2,3-dichlorophenyl)-1-piperazinyl]butoxy}-3,4-dihydrocarbostyril]	2.759 wt %	0.032 wt %	–	–	–
O=C1CCc2ccc(OCCCCN3CCN(c4cccc(Cl)c4Cl)CC3)cc2N1 [Reference Example 1, 7-{4-[4-(2,3-dichlorophenyl)-1-piperazinyl]butoxy}-3,4-dihydrocarbostyril]	–	–	0.10 wt %	3.37 wt %	2.6 μm
O=C1CCc2ccc(OCCCCN3CCN(c4cccc(Cl)c4Cl)CC3)cc2N1 [compound 2, 7-{4-[4-(2,3-dichlorophenyl)-1-piperazinyl]butoxy}-3,4-dihydrocarbostyril]	–	–	0.21 wt %	3.69 wt %	5.1 μm
O=C1CCc2ccc(OCCCCN3CCN(c4cccc(Cl)c4Cl)CC3)cc2N1 [compound 3, 7-{4-[4-(2,3-dichlorophenyl)-1-piperazinyl]butoxy}-3,4-dihydrocarbostyril]	–	–	0.24 wt %	3.97 wt %	8.9 μm
O=C1CCc2ccc(OCCCCN3CCN(c4cccc(Cl)c4Cl)CC3)cc2N1 [compound 4, 7-{4-[4-(2,3-dichlorophenyl)-1-piperazinyl]butoxy}-3,4-dihydrocarbostyril]	–	–	0.29 wt %	3.90 wt %	9.6 μm
